Laboratory results: PubChem BioAssay AID2060341 (Molecular Pharmacology Branch, DTP, NCI, 2025)
Where “and” joins values, the source holds several entries; their conditions need not be identical. Equal entries are not always repeated.

Tested on: 327498-153-R-J2-PDC multicell spheroid viability
Assay: Anticancer human tumor 327498-153-R-J2-PDC patient-derived uterine carcinosarcoma cell line growth inhibition [IpAb]
Details: for viability, T/C: stronger effect = lower value
Excerpt: Combinatorial screen of targeted agents with ipatasertib and abemaciclib in multi-cell type tumor spheroids
A high-throughput screen of multi-cell type tumor spheroids was designed to identify active combinations of targeted small molecules and ipatasertib or abemaciclib. Complex spheroids include a stromal component modeled by human endothelial cells (HUVEC) and fibroblasts modeled by human mesenchymal stem cells (MSCs). The concentration ranges selected for each drug and investigational agent were based upon clinically achievable concentrations if the clinical Cmax of the agent was known.
Compounds. The drugs and investigational agents: ipatasertib (NSC767898), abemaciclib(NSC768073), selumetinib (NSC741078), trametinib (758246), adavosertib (NSC754352), everolimus (NSC733504), sapanisertib (NSC764658), vemurafenib (NSC761431), venetoclax (NSC766270), copanlisib (NSC809693), apelisib (NSC765974), palbociblib (NSC758247), vemurafenib (NSC761431), dabrafenib (NSC764134), ravoxertinib (NSC781343), BMS-387032 (NSC767048), sotorasib (NSC818433), talazoparib (NSC767125) and afursertib (NSC778305), were obtained from the National Cancer Institute (NCI) Developmental Therapeutics Program Chemical Repository. The FDA-approved anticancer drug set is available from the NCI Developmental Therapeutics Program. […] The stock solutions were prepared in dimethyl sulfoxide (DMSO, Sigma-Aldrich, St. Louis, MO, cat. D2650) at 800-fold the tested concentration and stored at -70 degrees C prior to their use. All drugs and investigational agents were tested over a range starting from a high concentration at or near the clinical Cmax and decreasing in half-log increments. If the clinical Cmax for an agent had not been determined, the highest concentration tested was 10 microM.
NCI60 Cell Culture. NCI60 cell lines were obtained from the NCI Developmental Therapeutics Program Tumor Repository. For each lot of cells, the Repository performed Applied Biosystems AmpFLSTR Identifiler testing with PCR amplification to confirm consistency with the published Identifier STR profile for each cell line. Cells were kept in continuous culture for no more than 20 passages. The optimal seeding densities for each of the cell lines at each time point assessed were determined prior to performing the concentration response studies. Briefly, the NCI60 human tumor lines were grown as monolayers in RPMI 1640 medium supplemented with 10% FBS and 2 mmol/L L-glutamine.
An additional 9 lines were from the NCI60 cell line panel including MDA-MB-231 breast carcinoma, MDA-MB-468 breast carcinoma, MCF7 breast carcinoma, Hs578T breast carcinoma, MALME-3M melanoma, SK-MEL-2 melanoma, SK-OV-3 ovarian carcinoma, DU-145 prostate carcinoma, PC-3 prostate carcinoma, all cell lines along with major genetic alterations are listed on Table 2. Pooled donor human umbilical vein endothelial cells (HUVEC, Lonza, cat. CC-2519) and human mesenchymal stem cells (hMSC, Lonza, cat. PT-2501) were purchased from Lonza (Walkersville, MD).
PDMR cell lines were grown in complete medium (DC medium): Dulbecco's modified Eagle's medium (DMEM)/F12 supplemented with 5% fetal bovine serum (FBS), 2 mM L-glutamine, 100 U/mL penicillin and 100 µg/ml streptomycin, 0.4 µg/ml hydrocortisone, 10 ng/ml epidermal growth factor (EGF) recombinant human protein, 24 µg/mL adenine, and 0.1 mg/mL primocin. During culture from frozen stock vials, PDMR cells were cultured in the same medium containing 10 µM Y-27632 (see Table 3). The PDCs were cultured in complete DMEM/F12 media without 10 microM Y-27632 dihydrochloride for at least two passages prior to the screen. The pooled donor HUVEC and hMSC were cultured in endothelial cell growth medium 2 (PromoCell, Heidelberg, Germany, cat. C-22011) and mesenchymal stem cell growth medium 2 (PromoCell, cat. C-28009), respectively. For all experiments, HUVEC and hMSC were used at passages </=5.
[…]

[1] = curve of first compound, second compound 0.1 µM
[2] = curve of first compound, second compound 0.316 µM
[3] = curve of first compound, second compound 1 µM
[4] = second compound 0.1 µM, first compound 0.0316 µM
[5] = second compound 0.1 µM, first compound 0.1 µM
[6] = second compound 0.1 µM, first compound 0.316 µM
[7] = second compound 0.1 µM, first compound 1 µM
[8] = second compound 0.1 µM, first compound 3.16 µM
[9] = second compound 0.1 µM, first compound 10 µM
[10] = second compound 0.316 µM, first compound 0.0316 µM
[11] = second compound 0.316 µM, first compound 0.1 µM
[12] = second compound 0.316 µM, first compound 0.316 µM
[13] = second compound 0.316 µM, first compound 1 µM
[14] = second compound 0.316 µM, first compound 3.16 µM
[15] = second compound 0.316 µM, first compound 10 µM
[16] = second compound 1 µM, first compound 0.0316 µM
[17] = second compound 1 µM, first compound 0.1 µM
[18] = second compound 1 µM, first compound 0.316 µM
[19] = second compound 1 µM, first compound 1 µM
[20] = second compound 1 µM, first compound 3.16 µM
[21] = second compound 1 µM, first compound 10 µM
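Further: spheroids exposed to agents for 7 days.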
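Wherever viability, T/C is given: 100% = DMSO vehicle control viability.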

SMILES: CCCS(=O)(=O)Nc1ccc(F)c(C(=O)c2c[nH]c3ncc(-c4ccc(Cl)cc4)cc23)c1F + CCN1CCN(Cc2ccc(Nc3ncc(F)c(-c4cc(F)c5nc(C)n(C(C)C)c5c4)n3)nc2)CC1
- IC50 (curve of first compound, second compound 0.01 µM): > 10000 nM
- IC50 (curve of first compound, second compound 0.0316 µM): > 10000 nM
- IC50 [1]: > 10000 nM
- IC50 [2]: > 10000 nM
- IC50 [3]: > 10000 nM
- viability, T/C (second compound 0.01 µM, first compound 0.0316 µM): 107%
- viability, T/C (second compound 0.01 µM, first compound 0.1 µM): 105%
- viability, T/C (second compound 0.01 µM, first compound 0.316 µM): 104%
- viability, T/C (second compound 0.01 µM, first compound 1 µM): 108%
- viability, T/C (second compound 0.01 µM, first compound 3.16 µM): 98.1%
- viability, T/C (second compound 0.01 µM, first compound 10 µM): 97.3%
- viability, T/C (second compound 0.0316 µM, first compound 0.0316 µM): 81%
- viability, T/C (second compound 0.0316 µM, first compound 0.1 µM): 88.7%
- viability, T/C (second compound 0.0316 µM, first compound 0.316 µM): 85.6%
- viability, T/C (second compound 0.0316 µM, first compound 1 µM): 99.5%
- viability, T/C (second compound 0.0316 µM, first compound 3.16 µM): 94.2%
- viability, T/C (second compound 0.0316 µM, first compound 10 µM): 86.9%
- viability, T/C [4]: 73.4%
- viability, T/C [5]: 77.8%
- viability, T/C [6]: 77.2%
- viability, T/C [7]: 78.5%
- viability, T/C [8]: 76.6%
- viability, T/C [9]: 70.8%
- viability, T/C [10]: 70.6%
- viability, T/C [11]: 70.2%
- viability, T/C [12]: 63.8%
- viability, T/C [13]: 76.1%
- viability, T/C [14]: 73.1%
- viability, T/C [15]: 70.4%
- viability, T/C [16]: 58.9%
- viability, T/C [17]: 70.9%
- viability, T/C [18]: 72.8%
- viability, T/C [19]: 68.3%
- viability, T/C [20]: 68.3%
- viability, T/C [21]: 63.2%

SMILES: Cn1ncc(Cl)c1-c1cc(C(=O)NC(CN)Cc2cccc(F)c2)sc1Cl (stereo unspecified)
- viability, T/C (compound 0.0316 µM): 98.6% and 91.8%
- viability, T/C (compound 0.1 µM): 85.3% and 76%
- viability, T/C (compound 0.316 µM): 74.4% and 67.2%
- viability, T/C (compound 1 µM): 53.1% and 49%
- viability, T/C (compound 3.16 µM): 42.2% and 36.7%
- viability, T/C (compound 10 µM): 0.31% and 0.21%
- IC50 (curve of compound): 1480 nM and 1100 nM

SMILES: C=CCn1c(=O)c2cnc(Nc3ccc(N4CCN(C)CC4)cc3)nc2n1-c1cccc(C(C)(C)O)n1
- viability, T/C (compound 0.0316 µM): 97% and 97.5%
- viability, T/C (compound 0.1 µM): 106% and 94.9%
- viability, T/C (compound 0.316 µM): 56.2% and 56.8%
- viability, T/C (compound 1 µM): 4.15% and 5.89%
- viability, T/C (compound 3.16 µM): 3.83% and 4.76%
- viability, T/C (compound 10 µM): 5.49% and 6.6%
- IC50 (curve of compound): 363 nM and 369 nM

SMILES: COc1c(OCCCN2CCOCC2)ccc2c3n(c(=NC(=O)c4cnc(N)nc4)nc12)CCN3
- viability, T/C (compound 0.00316 µM): 98.8% and 95%
- viability, T/C (compound 0.01 µM): 87.7% and 86%
- viability, T/C (compound 0.0316 µM): 70.7% and 76.3%
- viability, T/C (compound 0.1 µM): 46.7% and 45.2%
- viability, T/C (compound 0.316 µM): 25.3% and 23.2%
- viability, T/C (compound 1 µM): 9.52% and 11.8%
- IC50 (curve of compound): 86.5 nM and 86.4 nM

SMILES: Cn1ncc(Cl)c1-c1cc(C(=O)NC(CN)Cc2cccc(F)c2)sc1Cl (stereo unspecified) + CC(C)NCC(C(=O)N1CCN(c2ncnc3c2C(C)CC3O)CC1)c1ccc(Cl)cc1
- IC50 [1]: 1310 nM
- IC50 [2]: 1640 nM
- IC50 [3]: 1250 nM
- IC50 (curve of first compound, second compound 3.16 µM): 920 nM
- IC50 (curve of first compound, second compound 10 µM): < 31.6 nM
- viability, T/C [4]: 98.5%
- viability, T/C [5]: 86.4%
- viability, T/C [6]: 70%
- viability, T/C [7]: 53.9%
- viability, T/C [8]: 38.1%
- viability, T/C [9]: 0.27%
- viability, T/C [10]: 77.7%
- viability, T/C [11]: 77.5%
- viability, T/C [12]: 63.2%
- viability, T/C [13]: 60.1%
- viability, T/C [14]: 40%
- viability, T/C [15]: 0.3%
- viability, T/C [16]: 63.4%
- viability, T/C [17]: 55.8%
- viability, T/C [18]: 55.3%
- viability, T/C [19]: 52.9%
- viability, T/C [20]: 39.8%
- viability, T/C [21]: 0.31%
- viability, T/C (second compound 3.16 µM, first compound 0.0316 µM): 50.5%
- viability, T/C (second compound 3.16 µM, first compound 0.1 µM): 56.8%
- viability, T/C (second compound 3.16 µM, first compound 0.316 µM): 50%
- viability, T/C (second compound 3.16 µM, first compound 1 µM): 49.5%
- viability, T/C (second compound 3.16 µM, first compound 3.16 µM): 39.2%
- viability, T/C (second compound 3.16 µM, first compound 10 µM): 0.3%
- viability, T/C (second compound 10 µM, first compound 0.0316 µM): 35.5%
- viability, T/C (second compound 10 µM, first compound 0.1 µM): 45.2%
- viability, T/C (second compound 10 µM, first compound 0.316 µM): 41.7%
- viability, T/C (second compound 10 µM, first compound 1 µM): 35.8%
- viability, T/C (second compound 10 µM, first compound 3.16 µM): 35.6%
- viability, T/C (second compound 10 µM, first compound 10 µM): 0.42%
